IC50 data for 27 compounds are collected here from patent US8883782B2, “Spiro-tetracyclic ring compounds as beta-secretase modulators and methods of use” (Amgen Inc., priority 2010, dated 2014).

The test system of assay [1] is Aβ40 in conditioned medium of cells stably expressing Amyloid Precursor Protein (APP). In words: In vitro BACE cell-based assay (Aβ40 in conditioned medium, sandwich ELISA). The following applies: Homo sapiens; for pIC50: HEK293, average IC50, read-out: HEK cell assay. The method in brief: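 Secreted Aβ40 is captured with pAb40 and detected with biotinylated 6E10, read by europium time-resolved fluorescence. IC50 comes from percent inhibition versus concentration.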
(ELISA stands for enzyme-linked immunosorbent assay.)

The target of assay [2] is Beta Secretase enzyme (BACE) (Homo sapiens, UniProt P56817). In words: In vitro enzymatic BACE FRET (fluorescence resonance energy transfer) assay. It counts as biochemical. As to conditions: for pIC50: average IC50, enzyme assay, read-out: BACE 1 FRET assay. The essentials: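 Buffer 0.05 M acetate pH 4.2, 10% DMSO final, 100 uM genapol (sub-CMC); start with 50 nM FRET substrate; 1 h incubation; Tris stop; fluorescence read.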

By IC50 is commonly meant the midpoint of a concentration-inhibition curve.

Each structure is given as a SMILES string. pIC50: −log10 of the molar value. Like-named read-outs stand apart in the source and are kept apart here.

Beta Secretase enzyme (BACE), sequence (P56817 46-501, species assumed): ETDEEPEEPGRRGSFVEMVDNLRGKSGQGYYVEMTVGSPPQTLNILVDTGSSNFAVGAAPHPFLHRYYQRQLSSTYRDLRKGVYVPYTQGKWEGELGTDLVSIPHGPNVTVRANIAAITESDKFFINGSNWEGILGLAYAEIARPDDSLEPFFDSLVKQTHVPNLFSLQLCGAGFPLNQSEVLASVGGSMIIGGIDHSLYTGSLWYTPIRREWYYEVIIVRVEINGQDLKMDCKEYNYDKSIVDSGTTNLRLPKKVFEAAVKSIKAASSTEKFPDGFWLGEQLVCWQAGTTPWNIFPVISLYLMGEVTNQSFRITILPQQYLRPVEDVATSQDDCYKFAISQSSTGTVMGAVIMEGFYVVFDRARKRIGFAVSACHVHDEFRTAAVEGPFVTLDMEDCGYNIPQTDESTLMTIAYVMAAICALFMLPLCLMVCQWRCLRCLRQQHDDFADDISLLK

Regarding `N#Cc1cncc(-c2ccc3c(c2)[C@@]2(COC(N)=N2)c2cc(C4=CCOCC4)ccc2O3)c1` [Example 190, 5-((4R)-2-amino-7′-(3,6-dihydro-2H-pyran-4-yl)spiro[1,3-oxazole-4,9′-xanthen]-2′-yl)-3-pyridinecarbonitrile], the results for the pIC50 in assay [1] and in assay [2] were 7.64 and 7.99, respectively.

Take `Cc1cnc(F)c(-c2ccc3c(c2)[C@@]2(COC(N)=N2)c2cc(C4=CCOCC4)ccc2O3)c1` [Example 191, (4R)-2′-(3,6-dihydro-2H-pyran-4-yl)-7′-(2-fluoro-5-methyl-3-pyridinyl)spiro[1,3-oxazole-4,9′-xanthen]-2-amine]: the pIC50 in assay [1] was 7.45; in assay [2] it was 8.25.

As to `NC1=N[C@]2(CO1)c1cc(C3=CCOCC3)ccc1Oc1ccc(-c3cnccn3)cc12` [Example 192, (4R)-2′-(3,6-dihydro-2H-pyran-4-yl)-7′-(2-pyrazinyl)spiro[1,3-oxazole-4,9′-xanthen]-2-amine], the pIC50 was 7.46 in assay [1] and 7.88 in assay [2].

Turning to `NC1=N[C@]2(CO1)c1cc(C3=CCOCC3)ccc1Oc1ccc(-c3cncc(F)c3)cc12` [Example 193, (4R)-2′-(3,6-dihydro-2H-pyran-4-yl)-7′-(5-fluoro-3-pyridinyl)spiro[1,3-oxazole-4,9′-xanthen]-2-amine], the figures for the pIC50 in assay [1] and in assay [2] were 7.74 and 8.12, respectively.

As for `COc1cncc(-c2ccc3c(c2)[C@@]2(COC(N)=N2)c2cc(C4=CCOCC4)ccc2O3)c1` [Example 194, (4R)-2′-(3,6-dihydro-2H-pyran-4-yl)-7′-(5-methoxy-3-pyridinyl)spiro[1,3-oxazole-4,9′-xanthen]-2-amine], the pIC50 in assay [1] is 7.56; in assay [2], 8.10.

On to `N#Cc1cccc(-c2ccc3c(c2)[C@@]2(COC(N)=N2)c2cc(C4=CCOCC4)ccc2O3)c1` [Example 195, 3-((4R)-2-amino-7′-(3,6-dihydro-2H-pyran-4-yl)spiro[1,3-oxazole-4,9′-xanthen]-2′-yl)benzonitrile], for which the pIC50 was 7.20 in assay [1] and 8.03 in assay [2].

As for `COc1cccc(Nc2ccc3c(c2)[C@@]2(COC(N)=N2)c2cc(C4=CCOCC4)cc(F)c2O3)c1` [Example 197, (4S)-7′-(3,6-dihydro-2H-pyran-4-yl)-5′-fluoro-N~2~′-(3-methoxyphenyl)spiro[1,3-oxazole-4,9′-xanthene]-2,2′-diamine], the pIC50 in assay [1] is 6.17; in assay [2], 7.43.

In the case of `COc1cccc(Nc2ccc3c(c2)[C@@]2(COC(N)=N2)c2cc(N4CCOCC4)cc(F)c2O3)c1` [Example 198, (4S)-5′-fluoro-N~2~′-(3-methoxyphenyl)-7′-(4-morpholinyl)spiro[1,3-oxazole-4,9′-xanthene]-2,2′-diamine], the values for the pIC50 in assay [1] and in assay [2] were 6.24 and 7.11, respectively.

Consider `CC(C)(O)C#Cc1cc(F)c2c(c1)[C@]1(COC(N)=N1)c1cc(-c3cccnc3F)ccc1O2` [Example 199, 4-((4S)-2-amino-4′-fluoro-7′-(2-fluoro-3-pyridinyl)spiro[1,3-oxazole-4,9′-xanthen]-2′-yl)-2-methyl-3-butyn-2-ol], for which the pIC50 was 8.29 in assay [1] and 9.10 in assay [2].

Take `Cc1cc(-c2cc(F)c3c(c2)[C@]2(COC(N)=N2)c2cc(-c4cccnc4F)ccc2O3)cc(=O)o1` [Example 200, 4-((4S)-2-amino-4′-fluoro-7′-(2-fluoro-3-pyridinyl)spiro[1,3-oxazole-4,9′-xanthen]-2′-yl)-6-methyl-2H-pyran-2-one]: the pIC50 is 8.07 in assay [1] and 9.22 in assay [2].

As to `NC1=N[C@@]2(CO1)c1cc(-c3cccnc3F)ccc1Oc1c(F)cc(-c3cccnn3)cc12` [Example 201, (4S)-4′-fluoro-7′-(2-fluoro-3-pyridinyl)-2′-(3-pyridazinyl)spiro[1,3-oxazole-4,9′-xanthen]-2-amine], the pIC50 in assay [1] was 8.12; in assay [2], 8.74.

For the compound `NC1=N[C@@]2(CO1)c1cc(-c3ccc(F)nc3)ccc1Oc1c(F)cc(N3CCOCC3)cc12` [Example 202, (4S)-4′-fluoro-7′-(6-fluoro-3-pyridinyl)-2′-(4-morpholinyl)spiro[1,3-oxazole-4,9′-xanthen]-2-amine], the pIC50 in assay [1] was 7.93; in assay [2], 8.31.

For `NC1=N[C@@]2(CO1)c1cc(-c3cccnc3F)ccc1Oc1c(F)cc(-c3ccncc3)cc12` [Example 203, (4S)-4′-fluoro-7′-(2-fluoro-3-pyridinyl)-2′-(4-pyridinyl)spiro[1,3-oxazole-4,9′-xanthen]-2-amine], the pIC50 in assay [1] is 8.11; in assay [2] it was 8.96.

Regarding `CC(C)(C#N)COc1cc(F)c2c(c1)[C@]1(COC(N)=N1)c1cc(-c3cncc(Cl)c3)ccc1O2` [Example 204, 3-(((4S)-2-amino-7′-(5-chloro-3-pyridinyl)-4′-fluorospiro[1,3-oxazole-4,9′-xanthen]-2′-yl)oxy)-2,2-dimethylpropanenitrile], the results for the pIC50 in assay [1] and in assay [2] were 8.35 and 9.30, respectively.

In the case of `NC1=N[C@@]2(CO1)c1cc(-c3cccnc3F)ccc1Oc1c(F)cc(-c3cnccn3)cc12` [Example 205, (4S)-4′-fluoro-7′-(2-fluoro-3-pyridinyl)-2′-(2-pyrazinyl)spiro[1,3-oxazole-4,9′-xanthen]-2-amine], the pIC50 in assay [1] was 8.00; in assay [2] it was 8.80.

For the compound `CC1(COc2cc(F)c3c(c2)[C@]2(COC(N)=N2)c2cc(-c4cncc(Cl)c4)ccc2O3)COC1` [Example 206, (4S)-7′-(5-chloro-3-pyridinyl)-4′-fluoro-2′-((3-methyl-3-oxetanyl)methoxy)spiro[1,3-oxazole-4,9′-xanthen]-2-amine], the pIC50 in assay [1] was 8.62; in assay [2] it was 9.15.

Take `COCCN(C)c1cc(F)c2c(c1)[C@]1(COC(N)=N1)c1cc(-c3cccnc3F)ccc1O2` [Example 207, (4S)-4′-fluoro-7′-(2-fluoro-3-pyridinyl)-N~2~′-(2-methoxyethyl)-N~2~′-methylspiro[1,3-oxazole-4,9′-xanthene]-2,2′-diamine]: the pIC50 in assay [1] is 7.50; in assay [2], 8.12.

On to `NC1=N[C@@]2(CO1)c1cc(-c3cncc(Cl)c3)ccc1Oc1c(F)cc(N3CCOCC3)cc12` [Example 208, (4S)-7′-(5-chloro-3-pyridinyl)-4′-fluoro-2′-(4-morpholinyl)spiro[1,3-oxazole-4,9′-xanthen]-2-amine], for which the pIC50 was 8.42 in assay [1] and 9.10 in assay [2].

Regarding `NC1=N[C@@]2(CO1)c1cc(-c3cncc(N4CCOCC4)c3)ccc1Oc1c(F)cc(N3CCOCC3)cc12` [Example 209, (4S)-4′-fluoro-2′-(4-morpholinyl)-7′-(5-(4-morpholinyl)-3-pyridinyl)spiro[1,3-oxazole-4,9′-xanthen]-2-amine], the pIC50 in assay [1] is 6.68; in assay [2] it was 6.60.

Turning to `NC1=N[C@@]2(CO1)c1cc(-c3cncc(Cl)c3)ccc1Oc1c(F)cc(C3=CCOCC3)cc12` [Example 210, (4S)-7′-(5-chloro-3-pyridinyl)-2′-(3,6-dihydro-2H-pyran-4-yl)-4′-fluorospiro[1,3-oxazole-4,9′-xanthen]-2-amine], the IC50 in assay [1] (HEK293, read-out: HEK cell assay (uM), average IC50, HEK cell assay) is 0.003 µM; in assay [2] (BACE 1 FRET assay (uM)), 0.0003 µM.

As to `NC1=N[C@@]2(CO1)c1cc(-c3cncc(Cl)c3)ccc1Oc1c(F)cc(OCC3CCOCC3)cc12` [Example 211, (4S)-7′-(5-chloro-3-pyridinyl)-4′-fluoro-2′-(tetrahydro-2H-pyran-4-ylmethoxy)spiro[1,3-oxazole-4,9′-xanthen]-2-amine], the figures for the pIC50 in assay [1] and in assay [2] were 8.09 and 9.22, respectively.

Regarding `NC1=N[C@@]2(CO1)c1cc(-c3cccnc3F)ccc1Oc1c(F)cc(-c3ccncn3)cc12` [Example 212, (4S)-4′-fluoro-7′-(2-fluoro-3-pyridinyl)-2′-(4-pyrimidinyl)spiro[1,3-oxazole-4,9′-xanthen]-2-amine], the pIC50 in assay [1] was 7.95; in assay [2], 8.85.

In the case of `COc1ncc(-c2cc(F)c3c(c2)[C@]2(COC(N)=N2)c2cc(-c4cccnc4F)ccc2O3)cn1` [Example 213, (4S)-4′-fluoro-7′-(2-fluoro-3-pyridinyl)-2′-(2-methoxy-5-pyrimidinyl)spiro[1,3-oxazole-4,9′-xanthen]-2-amine], the pIC50 in assay [1] is 7.67; in assay [2], 8.57.

Take `NC1=N[C@@]2(CO1)c1cc(-c3cccnc3F)ccc1Oc1c(F)cc(-c3cncnc3)cc12` [Example 214, (4S)-4′-fluoro-7′-(2-fluoro-3-pyridinyl)-2′-(5-pyrimidinyl)spiro[1,3-oxazole-4,9′-xanthen]-2-amine]: the pIC50 is 7.73 in assay [1] and 8.55 in assay [2].

Take `COc1cc(F)c2c(c1)[C@@]1(CSC(N)=N1)c1cc(-c3cnccn3)ccc1O2` [Example 222, (4R)-4′-fluoro-2′-methoxy-7′-(2-pyrazinyl)spiro[1,3-thiazole-4,9′-xanthen]-2-amine]: the pIC50 in assay [1] is 5.97; in assay [2], 7.38.

As for `Cc1ccc(-c2cc3c(cn2)Oc2ccc(-c4cncc(Cl)c4)cc2[C@@]32COC(N)=N2)cn1` [Example 227, (5S)-7-(5-chloro-3-pyridinyl)-3-(6-methyl-3-pyridinyl)spiro[chromeno[2,3-c]pyridine-5,4′-[1,3]oxazol]-2′-amine], the pIC50 was 8.15 in assay [1] and 8.85 in assay [2].

On to `Cc1cc(-c2ccc3c(c2)[C@@]2(COC(N)=N2)c2cc(C4=CCOCC4)ncc2O3)cnc1F` [Example 228, (5S)-3-(3,6-dihydro-2H-pyran-4-yl)-7-(6-fluoro-5-methyl-3-pyridinyl)spiro[chromeno[2,3-c]pyridine-5,4′-[1,3]oxazol]-2′-amine], for which the pIC50 in assay [1] is 7.85; in assay [2], 8.60.
